# Test system: HIV-1 (NL4-3 strain)
# Test: microbe, parasite or virus in culture
# Assay type: cell-based
# Conditions: 0% normal human serum (NHS); MT4-GFP cells infected with HIV-1 NL4-3; IP or IC50 from 4-parameter dose response curve; read-out: WILD TYPE CELL ASSAY Viking IP (0% NHS)
row,SMILES,IC50
1,"C[C@]12CCCO[C@@H]1Cn1cc(C(=O)NCc3ccc(F)cc3F)c(=O)c(O)c1C2=O (single isomer, unassigned) [Compound 33]",0.5 nM
2,"C[C@]12CCCO[C@@H]1Cn1cc(C(=O)NCc3ccc(F)cc3F)c(=O)c(O)c1C2=O (single isomer, unassigned) [Compound 34]",1.7 nM
3,"C[C@]12CCCO[C@@H]1Cn1cc(C(=O)NCc3cccc(Cl)c3F)c(=O)c(O)c1C2=O (single isomer, unassigned) [Compound 36]",0.6 nM
4,"C[C@@]12CCCCO[C@@H]1Cn1cc(C(=O)NCc3ccc(F)cc3F)c(=O)c(O)c1C2=O (single isomer, unassigned) [Compound 40]",1.5 nM
5,"C[C@@]12CCCCO[C@@H]1Cn1cc(C(=O)NCc3c(F)cc(F)cc3F)c(=O)c(O)c1C2=O (single isomer, unassigned) [Compound 42]",2.1 nM
6,"C[C@]12CCCCO[C@@H]1Cn1cc(C(=O)NCc3ccc(F)cc3F)c(=O)c(O)c1C2=O (single isomer, unassigned) [Compound 44]",1.9 nM
7,"C[C@]12CCCCO[C@@H]1Cn1cc(C(=O)NCc3cccc(Cl)c3F)c(=O)c(O)c1C2=O (single isomer, unassigned) [Compound 46]",1.3 nM
8,COc1c2n(cc(-c3nnc(Cc4ccc(F)cc4F)s3)c1=O)CC(OC)C(C)(C)C2=O (stereo not shown) [Compound 6],10 nM
9,C[C@]12CCCO[C@H]1Cn1cc(C(=O)NCc3ccc(F)cc3F)c(=O)c(O)c1C2=O [Compound 8],1.8 nM
10,C[C@@]12COCO[C@H]1Cn1cc(C(=O)NCc3ccc(F)cc3F)c(=O)c(O)c1C2=O [Compound 12],2.6 nM
11,C[C@]12CCCCO[C@H]1Cn1cc(C(=O)NCc3cccc(Cl)c3F)c(=O)c(O)c1C2=O [Compound 38],1.8 nM
12,C[C@@]12CC=CCO[C@@H]1Cn1cc(C(=O)NCc3ccc(F)cc3F)c(=O)c(O)c1C2=O [Compound 48],1.7 nM
13,C[C@]12CC=CCO[C@@H]1Cn1cc(C(=O)NCc3ccc(F)cc3F)c(=O)c(O)c1C2=O [Compound 50],1.6 nM
14,COC1(C)CCn2cc(C(=O)NCc3ccc(F)cc3F)c(=O)c(O)c2C1=O (stereo not shown) [Compound 52],3.4 nM
15,COC[C@]1(C)C(=O)c2c(O)c(=O)c(C(=O)NCc3ccc(F)cc3F)cn2C[C@@H]1OC [Compound 54],1.8 nM
16,COC[C@]1(C)C(=O)c2c(O)c(=O)c(C(=O)NCc3ccc(F)cc3F)cn2C[C@@H]1OC [Compound 55],8.1 nM
17,COC[C@@]1(C)C(=O)c2c(O)c(=O)c(C(=O)NCc3ccc(F)cc3F)cn2C[C@@H]1OC [Compound 57],4.7 nM
18,COCC[C@@]1(C)C(=O)c2c(O)c(=O)c(C(=O)NCc3cccc(Cl)c3F)cn2C[C@@H]1OC [Compound 63],0.9 nM
19,COCC[C@]1(C)C(=O)c2c(O)c(=O)c(C(=O)NCc3cccc(Cl)c3F)cn2C[C@@H]1OC [Compound 65],0.8 nM
20,COCC[C@@]1(C)C(=O)c2c(O)c(=O)c(C(=O)NCc3ccccc3F)cn2C[C@@H]1OC [Compound 67],1.7 nM
21,COCC[C@]1(C)C(=O)c2c(O)c(=O)c(C(=O)NCc3ccccc3F)cn2C[C@@H]1OC [Compound 69],1.2 nM
22,COCC[C@@]1(C)C(=O)c2c(O)c(=O)c(C(=O)NCc3c(F)cccc3F)cn2C[C@@H]1OC [Compound 71],2.2 nM
23,COCC[C@]1(C)C(=O)c2c(O)c(=O)c(C(=O)NCc3c(F)cccc3F)cn2C[C@@H]1OC [Compound 72],2.2 nM
24,COCC[C@]1(C)C(=O)c2c(O)c(=O)c(C(=O)NCc3c(F)cccc3F)cn2C[C@@H]1OC [Compound 73],1 nM
25,COCCC[C@]1(C)C(=O)c2c(O)c(=O)c(C(=O)NCc3ccc(F)cc3F)cn2C[C@@H]1OC [Compound 74],4 nM
26,COCCC[C@]1(C)C(=O)c2c(O)c(=O)c(C(=O)NCc3ccc(F)cc3F)cn2C[C@@H]1OC [Compound 75],0.5 nM
27,COCCC[C@@]1(C)C(=O)c2c(O)c(=O)c(C(=O)NCc3ccc(F)cc3F)cn2C[C@@H]1OC [Compound 77],1.2 nM
28,COCCC[C@]1(C)C(=O)c2c(O)c(=O)c(C(=O)NCc3cccc(Cl)c3F)cn2C[C@@H]1OC [Compound 79],1 nM

# Same assay, conditions: 100% normal human serum (NHS); MT4-GFP cells infected with HIV-1 NL4-3; IP or IC50 from 4-parameter dose response curve; read-out: WILD TYPE CELL ASSAY Viking IP (100% NHS)
row,SMILES,IC50
1,"C[C@]12CCCO[C@@H]1Cn1cc(C(=O)NCc3ccc(F)cc3F)c(=O)c(O)c1C2=O (single isomer, unassigned) [Compound 33]",281 nM
2,"C[C@]12CCCO[C@@H]1Cn1cc(C(=O)NCc3ccc(F)cc3F)c(=O)c(O)c1C2=O (single isomer, unassigned) [Compound 34]",1500 nM
3,"C[C@]12CCCO[C@@H]1Cn1cc(C(=O)NCc3cccc(Cl)c3F)c(=O)c(O)c1C2=O (single isomer, unassigned) [Compound 36]",1400 nM
4,"C[C@@]12CCCCO[C@@H]1Cn1cc(C(=O)NCc3ccc(F)cc3F)c(=O)c(O)c1C2=O (single isomer, unassigned) [Compound 40]",442 nM
5,"C[C@@]12CCCCO[C@@H]1Cn1cc(C(=O)NCc3c(F)cc(F)cc3F)c(=O)c(O)c1C2=O (single isomer, unassigned) [Compound 42]",517 nM
6,"C[C@]12CCCCO[C@@H]1Cn1cc(C(=O)NCc3ccc(F)cc3F)c(=O)c(O)c1C2=O (single isomer, unassigned) [Compound 44]",316 nM
7,"C[C@]12CCCCO[C@@H]1Cn1cc(C(=O)NCc3cccc(Cl)c3F)c(=O)c(O)c1C2=O (single isomer, unassigned) [Compound 46]",459 nM
8,C[C@]12CCCO[C@H]1Cn1cc(C(=O)NCc3ccc(F)cc3F)c(=O)c(O)c1C2=O [Compound 8],500 nM
9,C[C@@]12COCO[C@H]1Cn1cc(C(=O)NCc3ccc(F)cc3F)c(=O)c(O)c1C2=O [Compound 12],595 nM
10,C[C@]12CCCCO[C@H]1Cn1cc(C(=O)NCc3cccc(Cl)c3F)c(=O)c(O)c1C2=O [Compound 38],1600 nM
11,C[C@@]12CC=CCO[C@@H]1Cn1cc(C(=O)NCc3ccc(F)cc3F)c(=O)c(O)c1C2=O [Compound 48],913 nM
12,C[C@]12CC=CCO[C@@H]1Cn1cc(C(=O)NCc3ccc(F)cc3F)c(=O)c(O)c1C2=O [Compound 50],293 nM
13,COC1(C)CCn2cc(C(=O)NCc3ccc(F)cc3F)c(=O)c(O)c2C1=O (stereo not shown) [Compound 52],> 8400 nM
14,COC[C@]1(C)C(=O)c2c(O)c(=O)c(C(=O)NCc3ccc(F)cc3F)cn2C[C@@H]1OC [Compound 54],55 nM
15,COC[C@]1(C)C(=O)c2c(O)c(=O)c(C(=O)NCc3ccc(F)cc3F)cn2C[C@@H]1OC [Compound 55],> 8400 nM
16,COC[C@@]1(C)C(=O)c2c(O)c(=O)c(C(=O)NCc3ccc(F)cc3F)cn2C[C@@H]1OC [Compound 57],3500 nM
17,COCC[C@@]1(C)C(=O)c2c(O)c(=O)c(C(=O)NCc3cccc(Cl)c3F)cn2C[C@@H]1OC [Compound 63],249 nM
18,COCC[C@]1(C)C(=O)c2c(O)c(=O)c(C(=O)NCc3cccc(Cl)c3F)cn2C[C@@H]1OC [Compound 65],34 nM
19,COCC[C@@]1(C)C(=O)c2c(O)c(=O)c(C(=O)NCc3ccccc3F)cn2C[C@@H]1OC [Compound 67],154 nM
20,COCC[C@]1(C)C(=O)c2c(O)c(=O)c(C(=O)NCc3ccccc3F)cn2C[C@@H]1OC [Compound 69],24 nM
21,COCC[C@@]1(C)C(=O)c2c(O)c(=O)c(C(=O)NCc3c(F)cccc3F)cn2C[C@@H]1OC [Compound 71],89 nM
22,COCC[C@]1(C)C(=O)c2c(O)c(=O)c(C(=O)NCc3c(F)cccc3F)cn2C[C@@H]1OC [Compound 72],467 nM
23,COCC[C@]1(C)C(=O)c2c(O)c(=O)c(C(=O)NCc3c(F)cccc3F)cn2C[C@@H]1OC [Compound 73],22 nM
24,COCCC[C@]1(C)C(=O)c2c(O)c(=O)c(C(=O)NCc3ccc(F)cc3F)cn2C[C@@H]1OC [Compound 74],262 nM
25,COCCC[C@]1(C)C(=O)c2c(O)c(=O)c(C(=O)NCc3ccc(F)cc3F)cn2C[C@@H]1OC [Compound 75],13 nM
26,COCCC[C@@]1(C)C(=O)c2c(O)c(=O)c(C(=O)NCc3ccc(F)cc3F)cn2C[C@@H]1OC [Compound 77],60 nM
27,COCCC[C@]1(C)C(=O)c2c(O)c(=O)c(C(=O)NCc3cccc(Cl)c3F)cn2C[C@@H]1OC [Compound 79],662 nM

# Reference: US10201533B2, “Substituted quinolizine derivatives useful as HIV integrase inhibitors” (priority 2013, dated 2019)
